From the supplement of paper PMC10307832

Legend:
Assay in all cases: relative viability (nuclei count vs DMSO), 5 days (fraction); higher = more cells survive
[1] = compound: Cc1ccc2nc(NCCN)c3ncc(C)n3c2c1 + CC(C)C[C@H](NC(=O)[C@H](Cc1ccccc1)NC(=O)c1cnccn1)B(O)O [Bortezomib] (partner 0.002 µM)
Method in brief: (§1)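 Relative viability equals treated-well nuclei counts divided by vehicle-well nuclei counts. Counts came from 4× images of lung cancer cell lines grown in 1536-well plates for 5 days after pin-tool dosing on the day after seeding. Dosing used one drug alone or a fixed anchor-drug dose plus five library-drug doses (not always all listed) in √10 steps, and values are medians of duplicate plates.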

[2] = compound: Cc1ccc2nc(NCCN)c3ncc(C)n3c2c1 + C[C@]1(O)C[C@@H](c2nc(-c3ccc4ccc(-c5ccccc5)nc4c3)c3c(N)nccn32)C1 [Linsitinib] (partner 1 µM)
Method in brief: as §1

Salubrinal + Palbociclib = compound: O=C(/C=C/c1ccccc1)NC(NC(=S)Nc1cccc2cccnc12)C(Cl)(Cl)Cl [Salubrinal] + CC(=O)c1c(C)c2cnc(Nc3ccc(N4CCNCC4)cn3)nc2n(C2CCCC2)c1=O [Palbociclib] (partner 0.5 µM)
Method in brief: as §1

Salubrinal + Dasatinib = compound: O=C(/C=C/c1ccccc1)NC(NC(=S)Nc1cccc2cccnc12)C(Cl)(Cl)Cl [Salubrinal] + Cc1nc(Nc2ncc(C(=O)Nc3c(C)cccc3Cl)s2)cc(N2CCN(CCO)CC2)n1 [Dasatinib] (partner 0.075 µM)
Method in brief: as §1

Row | Cell Line | relative viability ([1]; first compound 0.04 µM) | relative viability ([1]; first compound 0.1265 µM) | relative viability ([1]; first compound 0.4 µM) | relative viability ([1]; first compound 1.265 µM) | relative viability ([1]; first compound 4 µM) | relative viability ([2]; first compound 0.04 µM) | relative viability ([2]; first compound 0.1265 µM) | relative viability ([2]; first compound 0.4 µM) | relative viability ([2]; first compound 1.265 µM) | relative viability ([2]; first compound 4 µM) | relative viability (Salubrinal + Palbociclib; first compound 0.08 µM) | relative viability (Salubrinal + Palbociclib; first compound 0.253 µM) | relative viability (Salubrinal + Palbociclib; first compound 0.8 µM) | relative viability (Salubrinal + Palbociclib; first compound 2.53 µM) | relative viability (Salubrinal + Palbociclib; first compound 8 µM) | relative viability (Salubrinal + Dasatinib; first compound 0.08 µM) | relative viability (Salubrinal + Dasatinib; first compound 0.253 µM) | relative viability (Salubrinal + Dasatinib; first compound 0.8 µM) | relative viability (Salubrinal + Dasatinib; first compound 2.53 µM) | relative viability (Salubrinal + Dasatinib; first compound 8 µM)
1 | 201T | 1.11 | 1.2 | 1.09 | 1.11 | 1.11 | 1 | 1.09 | 1.04 | 0.98 | 0.992 | 0.355 | 0.332 | 0.413 | 0.351 | 0.374 | 0.56 | 0.596 | 0.669 | 0.602 | 0.573
2 | A549 | – | – | – | – | – | 0.791 | 0.557 | 0.598 | 0.423 | 0.534 | – | – | – | – | – | – | – | – | – | –
3 | Calu-6 | 1.08 | 0.891 | 1.03 | 0.912 | 0.603 | 0.872 | 0.895 | 0.966 | 0.982 | 0.983 | – | – | – | – | – | – | – | – | – | –
4 | ChaGo-K-1 | 1.01 | 1 | 1.01 | 0.973 | 0.607 | – | – | – | – | – | 1.02 | 0.756 | 0.954 | 0.938 | 0.837 | 0.685 | 0.544 | 0.667 | 0.57 | 0.524
5 | EBC-1 | 0.549 | 0.526 | 0.486 | 0.406 | 0.31 | 1.08 | 1.13 | 0.874 | 0.866 | 0.793 | – | – | – | – | – | – | – | – | – | –
6 | HCC-44 | 0.93 | 0.897 | 0.806 | 0.882 | 0.922 | 0.869 | 0.632 | 0.652 | 0.625 | 0.69 | 1.03 | 0.941 | 0.971 | 0.998 | 1 | – | – | – | – | –
7 | IA-LM | 0.895 | 0.94 | 0.844 | 0.696 | 0.66 | 0.825 | 0.559 | 0.542 | 0.658 | 0.495 | – | – | – | – | – | – | – | – | – | –
8 | LK-2 | – | – | – | – | – | 0.561 | 0.439 | 0.531 | 0.194 | 0.37 | 0.708 | 0.781 | 0.683 | 0.597 | 0.788 | 0.378 | 0.302 | 0.296 | 0.312 | 0.342
9 | NCI-H358 | – | – | – | – | – | 0.755 | 0.769 | 0.694 | 0.88 | 0.665 | 0.154 | 0.137 | 0.123 | 0.109 | 0.138 | 0.173 | 0.23 | 0.154 | 0.149 | 0.145
10 | NCI-H522 | – | – | – | – | – | – | – | – | – | – | 1.1 | 1.21 | 0.956 | 0.94 | 1.13 | 0.988 | 0.976 | 0.981 | 0.869 | 0.972
11 | NCI-H596 | 1.01 | 0.937 | 0.978 | 0.976 | 0.971 | 1.26 | 1.02 | 0.869 | 1.03 | 1.03 | – | – | – | – | – | 0.633 | 0.509 | 0.569 | 0.633 | 0.56
12 | NCI-H1299 | 1 | 0.993 | 1.01 | 1.05 | 0.972 | 1.01 | 0.925 | 0.962 | 0.979 | 0.924 | – | – | – | – | – | – | – | – | – | –
13 | NCI-H1395 | – | – | – | – | – | 1 | 0.955 | 1.02 | 1.07 | 0.955 | 0.638 | 0.648 | 0.591 | 0.62 | 0.587 | 0.409 | 0.443 | 0.472 | 0.4 | 0.392
14 | NCI-H1563 | 0.859 | 0.757 | 0.875 | 0.968 | 1.05 | 1.31 | 1.02 | 1.1 | 1.39 | 1.21 | – | – | – | – | – | 0.446 | 0.514 | 0.555 | 0.453 | 0.502
15 | NCI-H1623 | – | – | – | – | – | – | – | – | – | – | – | – | – | – | – | 0.475 | 0.485 | 0.54 | 0.514 | 0.572
16 | NCI-H1648 | – | – | – | – | – | – | – | – | – | – | 0.255 | 0.258 | 0.252 | 0.22 | 0.236 | – | – | – | – | –
17 | NCI-H1650 | 0.203 | 0.19 | 0.206 | 0.182 | 0.202 | – | – | – | – | – | 0.314 | 0.297 | 0.334 | 0.366 | 0.375 | 0.366 | 0.35 | 0.321 | 0.357 | 0.294
18 | NCI-H1703 | 0.34 | 0.329 | 0.329 | 0.347 | 0.234 | 1.43 | 0.74 | 0.72 | 1.23 | 0.715 | – | – | – | – | – | – | – | – | – | –
19 | NCI-H1793 | – | – | – | – | – | 1.04 | 0.951 | 0.789 | 0.744 | 0.845 | 0.366 | 0.37 | 0.323 | 0.284 | 0.287 | 0.448 | 0.421 | 0.359 | 0.385 | 0.398
20 | NCI-H1944 | – | – | – | – | – | 1.06 | 1.3 | 1.21 | 1.23 | 1.19 | 0.394 | 0.372 | 0.315 | 0.299 | 0.337 | 0.233 | 0.216 | 0.205 | 0.226 | 0.246
21 | NCI-H2170 | – | – | – | – | – | – | – | – | – | – | 0.436 | 0.326 | 0.447 | 0.395 | 0.372 | 0.764 | 0.526 | 0.71 | 0.57 | 0.534
22 | NCI-H2342 | – | – | – | – | – | – | – | – | – | – | 0.465 | 0.516 | 0.552 | 0.49 | 0.531 | 0.304 | 0.278 | 0.305 | 0.298 | 0.291
23 | SK-MES-1 | – | – | – | – | – | 1.08 | 0.993 | 1.09 | 1.05 | 1.03 | 0.33 | 0.356 | 0.33 | 0.305 | 0.259 | 0.428 | 0.32 | 0.408 | 0.371 | 0.271
24 | SW 900 | – | – | – | – | – | – | – | – | – | – | 0.692 | 0.531 | 0.493 | 0.468 | 0.567 | 1.09 | – | 0.66 | 0.584 | 0.497
